Like-named read-outs stand apart in the source and are kept apart here.
What was measured:
[1] = for BA of paclitaxel: paclitaxel 20 mg/kg po vs 5 mg/kg IV
[2] = paclitaxel 10 mg/kg po
in vivo [3] = settings: FVB, mouse
in vivo [4] = settings: FVB, mouse, oral, 10 mg/kg
BCRP = molecular target: T1, BCRP (Homo sapiens, UniProt Q9UNQ0); experiment: Inhibition of BCRP-mediated transport of mitoxantrone across Caco-2 cell monolayers; settings: Caco-2 monolayers
T1 sequence (Q9UNQ0 1-655): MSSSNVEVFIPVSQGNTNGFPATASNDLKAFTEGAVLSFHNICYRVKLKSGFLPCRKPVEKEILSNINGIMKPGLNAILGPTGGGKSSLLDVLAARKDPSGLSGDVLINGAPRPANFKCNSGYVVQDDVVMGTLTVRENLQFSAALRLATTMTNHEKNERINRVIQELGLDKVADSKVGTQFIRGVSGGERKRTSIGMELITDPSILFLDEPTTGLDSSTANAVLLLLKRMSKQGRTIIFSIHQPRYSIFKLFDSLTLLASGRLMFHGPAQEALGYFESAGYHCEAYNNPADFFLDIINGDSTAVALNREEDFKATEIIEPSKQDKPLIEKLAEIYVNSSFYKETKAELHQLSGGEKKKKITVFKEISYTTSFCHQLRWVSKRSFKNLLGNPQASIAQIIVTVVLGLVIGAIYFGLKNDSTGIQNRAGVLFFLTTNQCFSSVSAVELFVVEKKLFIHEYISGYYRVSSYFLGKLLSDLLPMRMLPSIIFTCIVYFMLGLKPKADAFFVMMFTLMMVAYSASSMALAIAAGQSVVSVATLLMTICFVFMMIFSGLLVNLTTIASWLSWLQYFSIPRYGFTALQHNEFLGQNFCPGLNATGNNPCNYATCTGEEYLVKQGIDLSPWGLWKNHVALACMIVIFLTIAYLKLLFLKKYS
Experimental: For transport experiments, Caco-2 cells were grown on a polyethylene terephthalate insert (0.4 μm pore size, 12 mm diameter) at 1.0 × 10^5 cells/well, and cultured for 14–21 days with the replacement of the medium once every 2 days. Caco-2 cells used in this study were within the passage range of 55 through 70.
(§1) The efflux ratio (ER) was calculated using Equation (3) ER = Papp,BA/Papp,AB(3) where Papp,AB and Papp,BA are the Papp values for AP-to-BL and BL-to-AP transport, respectively.
(§2) IC50 values of Papp,BA and ER were also determined using Equation (4).

P-gp [5] = test system: P-gp; set-up: method as in PMID 18678495; settings: cited from earlier work
P-gp [6] = molecular target: T2, P-gp (Homo sapiens, UniProt P08183); experiment: Inhibition of P-gp-mediated transport of paclitaxel across Caco-2 cell monolayers; assay type: cell-based; settings: Caco-2 monolayers
T2 construct: host or cells: Caco-2
T2 sequence (P08183 whole entry): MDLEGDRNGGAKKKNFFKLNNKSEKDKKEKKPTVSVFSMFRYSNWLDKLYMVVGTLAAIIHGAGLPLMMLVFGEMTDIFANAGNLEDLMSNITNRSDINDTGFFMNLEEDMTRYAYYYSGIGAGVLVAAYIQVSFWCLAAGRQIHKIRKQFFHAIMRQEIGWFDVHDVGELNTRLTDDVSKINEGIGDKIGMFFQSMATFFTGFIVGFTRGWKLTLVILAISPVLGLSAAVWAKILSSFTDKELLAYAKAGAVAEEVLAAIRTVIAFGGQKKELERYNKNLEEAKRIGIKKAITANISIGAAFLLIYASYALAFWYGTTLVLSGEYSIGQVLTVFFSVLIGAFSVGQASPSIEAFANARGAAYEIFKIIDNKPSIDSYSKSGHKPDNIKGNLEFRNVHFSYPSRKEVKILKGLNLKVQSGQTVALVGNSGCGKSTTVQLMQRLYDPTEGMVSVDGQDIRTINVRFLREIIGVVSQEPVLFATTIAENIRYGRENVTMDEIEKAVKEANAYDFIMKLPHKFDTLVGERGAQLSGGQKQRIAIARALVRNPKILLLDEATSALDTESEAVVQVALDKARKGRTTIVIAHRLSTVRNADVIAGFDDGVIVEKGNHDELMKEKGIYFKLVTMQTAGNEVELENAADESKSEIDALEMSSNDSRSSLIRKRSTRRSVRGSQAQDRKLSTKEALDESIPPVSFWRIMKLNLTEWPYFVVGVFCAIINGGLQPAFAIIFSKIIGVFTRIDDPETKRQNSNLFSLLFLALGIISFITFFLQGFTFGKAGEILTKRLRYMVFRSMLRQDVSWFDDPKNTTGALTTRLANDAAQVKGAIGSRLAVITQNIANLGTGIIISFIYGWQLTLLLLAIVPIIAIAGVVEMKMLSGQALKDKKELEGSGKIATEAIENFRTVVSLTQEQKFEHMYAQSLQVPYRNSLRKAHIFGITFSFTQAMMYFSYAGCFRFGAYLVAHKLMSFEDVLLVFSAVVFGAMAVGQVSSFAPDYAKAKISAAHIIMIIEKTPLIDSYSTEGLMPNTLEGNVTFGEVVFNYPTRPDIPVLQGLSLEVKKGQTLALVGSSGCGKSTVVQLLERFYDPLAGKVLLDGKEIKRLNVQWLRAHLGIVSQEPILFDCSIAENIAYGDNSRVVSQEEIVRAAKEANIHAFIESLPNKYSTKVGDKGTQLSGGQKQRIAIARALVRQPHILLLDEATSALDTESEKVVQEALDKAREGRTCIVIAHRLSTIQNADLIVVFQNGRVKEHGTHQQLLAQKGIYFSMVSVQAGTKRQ
Experimental: Caco-2 cells from Dainippon Sumitomo Pharma (Osaka, Japan) were cultured in DMEM supplemented with 10% heat-inactivated fetal bovine serum, 1% antibiotic-antimycotic, 1% nonessential amino acids, and 2 mM L-glutamine [31]. Cells were maintained at 37 °C in 5% CO2/95% air and passaged upon reaching approximately 80% confluence using 0.25% trypsin/1 mM EDTA solution. For transport experiments, Caco-2 cells were grown on a polyethylene terephthalate insert (0.4 μm pore size, 12 mm diameter) at 1.0 × 10^5 cells/well, and cultured for 14–21 days with the replacement of the medium once every 2 days. Caco-2 cells used in this study were within the passage range of 55 through 70.
as §1, §2

[7] = topotecan 2 mg/kg po; for concentration at 30 min: FVB, mouse, oral, 2 mg/kg
Experimental: Food and water were available ad libitum.
The flow rate was 1.0 mL/min.

[8] = paclitaxel 20 mg/kg po, WT mice
[9] = portal vein plasma, po, 20 mg/kg
[10] = systemic (abdominal vein) plasma, po, 20 mg/kg
[11] = male, portal vein plasma, po, 20 mg/kg
[12] = male, systemic (abdominal vein) plasma, po, 20 mg/kg
[13] = systemic (abdominal vein) plasma
[14] = male, systemic (abdominal vein) plasma

In the case of `CC(=O)O[C@H]1C(=O)[C@@]2(C)[C@H]([C@H](OC(=O)c3ccccc3)[C@]3(O)C[C@H](OC(=O)[C@H](O)[C@@H](NC(=O)c4ccccc4)c4ccccc4)C(C)=C1C3(C)C)[C@]1(OC(C)=O)CO[C@@H]1C[C@@H]2O` [paclitaxel], the t1/2 of paclitaxel ([1]; paclitaxel 5 mg/kg IV, WT mice) is reported as 2.38 h, the “AUCpv of paclitaxel, mdr1a/1b KO mice versus WT mice” value ([1]; paclitaxel 20 mg/kg po) is reported as 3.3 fold and the “AUCsys of paclitaxel, mdr1a/1b KO mice higher than WT mice” value ([1]; paclitaxel 20 mg/kg po) is reported as “approximately 2.8 fold”. For the same molecule, the “BA of paclitaxel, mdr1a/1b KO mice versus WT mice” value ([1]; paclitaxel 20 mg/kg po) was 2.5 fold, the “Cmax of paclitaxel in portal vein, mdr1a/1b KO mice versus WT mice” value ([1]; paclitaxel 20 mg/kg po) was 3.5 fold and the “Cmax of paclitaxel in systemic circulation, mdr1a/1b KO mice versus WT mice” value ([1]; paclitaxel 20 mg/kg po) was 2.7 fold. The “FaFg of paclitaxel, mdr1a/1b KO mice versus WT mice” value ([1]; paclitaxel 20 mg/kg po) was 4.0 fold, the BA of paclitaxel ([1]; WT mice) was 11.7% and the BA of paclitaxel ([1]; mdr1a/1b KO mice) was 29.0%. For the same molecule, the FaFg of paclitaxel [1, 8] was 16.6%, the Fh of paclitaxel [1, 8] was 70.6 and the FaFg of paclitaxel ([1]; paclitaxel 20 mg/kg po, mdr1a/1b KO mice) was 66.3%. The t1/2 of paclitaxel ([1]; paclitaxel 20 mg/kg po, mdr1a/1b KO mice, pv) was 1.25 h, the Cmax ([1]; read-out: Cmax of paclitaxel, paclitaxel 20 mg/kg po, mdr1a/1b KO mice, pv) was 2520 nM and the “V of paclitaxel, mdr1a/1b KO mice versus WT mice” value ([2]; 10 min) was “approximately 3.5 fold”. The “Absorption Rate V of paclitaxel” value ([2]; 10 min, WT mice, no inhibitor) was 15.7 nmol/min/kg, the Cpv of paclitaxel ([2]; 10 min, WT mice, no inhibitor) was 439 ± 98 nM and the “Cpv − Csys of paclitaxel” value ([2]; 10 min, WT mice, no inhibitor) was 216 ± 80 nM. The “Absorption Rate V of paclitaxel” value ([2]; 10 min, mdr1a/1b KO mice) was 54.3 nmol/min/kg, the Cpv of paclitaxel ([2]; 10 min, mdr1a/1b KO mice) was 967 ± 191 nM and the “Cpv − Csys of paclitaxel” value ([2]; 10 min, mdr1a/1b KO mice) was 749 ± 165 nM. For the same molecule, the “V of paclitaxel, mdr1a/1b KO mice versus WT mice” value ([2]; 30 min) was “approximately 5.1 fold”, the “Absorption Rate V of paclitaxel” value ([2]; 30 min, WT mice, no inhibitor) was 12.4 nmol/min/kg and the “Cpv − Csys of paclitaxel” value ([2]; 30 min, WT mice, no inhibitor) was 165 ± 61 nM. For the same molecule, the “Absorption Rate V of paclitaxel” value ([2]; 30 min, mdr1a/1b KO mice) was 63.7 nmol/min/kg, the “Cpv − Csys of paclitaxel” value ([2]; 30 min, mdr1a/1b KO mice) was 847 ± 144 nM and the AUC (in vivo [3]; plasma, iv, 5 mg/kg) was 2.66 µM·h. The MRT (in vivo [3]; plasma, iv, 5 mg/kg) was 1.47 h, the Vd (in vivo [3]; plasma, iv, 5 mg/kg) was 4.15 L/kg and the clearance (in vivo [3]; plasma, iv, 5 mg/kg) was 36.7 mL/min/kg. The half-life (in vivo [3]; plasma, iv, 5 mg/kg) was 2.12 h, the AUC (in vivo [3]; [9]) was 6.58 µM·h and the MRT (in vivo [3]; [9]) was 2.16 h. The Tmax (in vivo [3]; [9]) was 1 h, the k el (in vivo [3]; [9]) was 0.000153 s⁻¹ and the AUC (in vivo [3]; [10]) was 3.09 µM·h. The Cmax (in vivo [3]; [10]) was 1180 nM, the MRT (in vivo [3]; [10]) was 3.09 h and the Tmax (in vivo [3]; [10]) was 1 h. The k el (in vivo [3]; [10]) was 9.72e-05 s⁻¹, the half-life (in vivo [3]; systemic plasma, po, 20 mg/kg) was 2 h and the AUC (in vivo [3]; male, plasma, iv, 5 mg/kg) was 2.32 µM·h. For the same molecule, the MRT (in vivo [3]; male, plasma, iv, 5 mg/kg) was 1.71 h, the Vd (in vivo [3]; male, plasma, iv, 5 mg/kg) was 4.32 L/kg and the clearance (in vivo [3]; male, plasma, iv, 5 mg/kg) was 42 mL/min/kg. For the same molecule, the AUC (in vivo [3]; [11]) was 2 µM·h, the Cmax (in vivo [3]; [11]) was 730 nM and the MRT (in vivo [3]; [11]) was 2.51 h. It also gave a Tmax (in vivo [3]; [11]) of 1 h, a half-life (in vivo [3]; [11]) of 1.62 h and a k el (in vivo [3]; [11]) of 0.000119 s⁻¹. For the same molecule, the AUC (in vivo [3]; [12]) was 1.09 µM·h, the Cmax (in vivo [3]; [12]) was 442 nM and the MRT (in vivo [3]; [12]) was 2.29 h. The Tmax (in vivo [3]; [12]) was 1 h, the k el (in vivo [3]; [12]) was 0.000139 s⁻¹ and the half-life (in vivo [3]; male, systemic plasma, po, 20 mg/kg) was 1.37 h. It also gave a concentration at 10 min (in vivo [4]; portal vein plasma) of 967 nM, a concentration at 30 min (in vivo [4]; portal vein plasma) of 1090 ± 118 nM and a concentration at 10 min (in vivo [4]; [13]) of 218 ± 100 nM. It also gave a concentration at 30 min (in vivo [4]; [13]) of 245 ± 69 nM, a concentration at 10 min (in vivo [4]; male, portal vein plasma) of 439 nM and a concentration at 30 min (in vivo [4]; male, portal vein plasma) of 328 ± 41 nM. It also gave a concentration at 10 min (in vivo [4]; [14]) of 223 ± 76 nM and a concentration at 30 min (in vivo [4]; [14]) of 135 ± 41 nM.

With `COc1cc2c(cc1OC)CN(CCc1ccc(NC(=O)c3cc(OC)c(OC)cc3NC(=O)c3cnc4ccccc4c3)cc1)CC2` [XR9576, N-(2-([(4-(2-[3,4-Dihydro-6,7-dimethoxy-2(1H)-isoquinolinyl]ethyl)phenyl)amino]carbonyl)-4,5-dimethoxyphenyl)-3-quinolinecarboxamide] the “Hill coefficient, ER of mitoxantrone” value (BCRP) was 0.44 ± 0.05, the IC50 (BCRP; IC50 on Papp,BA of mitoxantrone, mitoxantrone 5 μM, 50% decrease of Papp,BA) was 1000 ± 45 nM and the IC50 (BCRP; read-out: IC50 on ER of mitoxantrone, 50% decrease of efflux ratio) was 531 ± 162 nM. For the same molecule, the “IC50 for P-gp-mediated Hoechst 33342 transport lower than that for BCRP-mediated Hoechst 33342 transport” value (P-gp [5]) was “approximately 20.1 fold”, the “Hill coefficient, ER of paclitaxel” value (P-gp [6]) was 3.41 ± 0.28 and the “basal-to-apical transport of paclitaxel” value (P-gp [6]) was “significantly decreased”. The IC50 (P-gp [6]; 50% decrease of efflux ratio, read-out: IC50 on ER of paclitaxel) was 46 ± 19 nM, the IC50 (P-gp [6]; paclitaxel 5 μM, 50% decrease of Papp,BA, read-out: IC50 on Papp,BA of paclitaxel) was 64 ± 40 nM and the IC50 (P-gp [6]; paclitaxel 5 μM, inhibitor concentration to achieve 50% increase of Papp,AB, read-out: IC50 on Papp,AB of paclitaxel) was 234 ± 61 nM.

With `CC[C@@]1(O)C(=O)OCc2c1cc1n(c2=O)Cc2cc3c(CN(C)C)c(O)ccc3nc2-1` [topotecan] the concentration at 30 min ([7]; plasma (portal vein), Cpv of topotecan, mdr1a/1b KO mice) was 236 ± 30 nM, the concentration at 30 min ([7]; plasma (systemic circulation, abdominal vein), Csys of topotecan, bcrp KO mice) was 398 ± 88 nM and the concentration at 30 min ([7]; plasma (systemic circulation, abdominal vein), Csys of topotecan, mdr1a/1b KO mice) was 207 ± 28 nM. The concentration at 30 min ([7]; portal vein plasma, Cpv of topotecan, bcrp KO mice) was 469 nM, the concentration at 30 min ([7]; male, plasma (systemic circulation, abdominal vein), Csys of topotecan, WT mice, no inhibitor) was 179 ± 25 nM and the concentration at 30 min ([7]; male, portal vein plasma, Cpv of topotecan, WT mice, no inhibitor) was 196 ± 29 nM. The “V of topotecan, bcrp KO mice versus WT mice” value ([7]; 30 min) was “approximately 4.1 fold”, the “V of topotecan, bcrp KO mice versus mdr1a/1b KO mice” value ([7]; 30 min) was ~2.4 fold and the “Absorption Rate V of topotecan” value ([7]; 30 min, WT mice, no inhibitor) was 1.29 nmol/min/kg. For the same molecule, the “Cpv − Csys of topotecan” value ([7]; 30 min, WT mice, no inhibitor) was 17.1 ± 5.7 nM, the “Absorption Rate V of topotecan” value ([7]; 30 min, bcrp KO mice) was 5.30 nmol/min/kg and the Cpv of topotecan ([7]; 30 min, bcrp KO mice) was 469 ± 64 nM. The “Cpv − Csys of topotecan” value ([7]; 30 min, bcrp KO mice) was 70.5 ± 20 nM, the “Absorption Rate V of topotecan” value ([7]; 30 min, mdr1a/1b KO mice) was 2.17 nmol/min/kg and the “Cpv − Csys of topotecan” value ([7]; 30 min, mdr1a/1b KO mice) was 28.9 ± 8.4 nM.
